Columns and labels:
[1] = tested on: rat uterus; experiment: Effects on the rat uterus in vitro; type: cell-based; conditions: dose producing response 50% that of carbachol
Protocol: (B) effect on the rat uterus in vitro;
The uterine stimulant effect of test compounds was determined in segments of uterus obtained from rats (140-160 g) pretreated subcutaneously with 1 mg/kg of diethylstilbesterol 18 hours before the experiment. The tissues were placed in 10 ml chambers filled with de-Jalon solution at 29° C., were aerated and bubbled with 95% O2 and 5% CO2, and were prepared for isometric recording with force displacement transducers. Preparations were stretched to an initial tension of 1 g and were left undisturbed for 30 minutes. Carbachol (1 mcg/ml) was then added to the bath and a response was recorded. After a ten minute interval the carbachol procedure was repeated. Responses to increasing concentrations of a test compound (0.001 to 10 mcg/ml with one log intervals) were then recorded every 10 minutes. Preparations were washed four times after each response. All doses of compounds were administered in a 0.1 ml volume. Because it has been observed that the magnitude of the second response to carbachol (approximately 10% greater than the first) is close to the maximal response of the tissue, such value was taken as a measure of the sensitivity of a particular segment. Responses to each concentration of the test compound were expressed in terms of percentage of the second response to carbachol and the ED50 (dose producing a response 50% that of carbachol) was calculated graphically.
Activity was scored according to the following scale: […]

[2] = tested on: rat; experiment: Effects on gastric secretion in the rat; type: in vivo; conditions: pylorus ligated, 1.5 mg/kg s.c. twice (total 3.0 mg/kg), 4 hours
Protocol: (F) effect on gastric secretion in the rat;
A procedure based on that described by Lipman, W. (J. Pharm. Pharmacol., 21: 335 [1968]) was used to assess the influence of test compounds on gastric secretion. Rats of one sex weighing 150 to 200 g were randomly divided into groups of six animals each and fasted for 48 hours previous to the experiments, water being available ad libitum. The animals were anesthetized with ether, the abdomen opened through a midline incision, and the pylorus ligated. Test compounds were diluted from stock solution so as to administer a dose of 1.5 mg/kg in a volume equivalent to 1 ml/kg. Subcutaneous injections were applied immediately after surgery and again 2 hours later, so that a total dose of 3.0 mg/kg was administered. Dilutions were made with phosphate buffer (pH 7.38) as recommended by Lee et al. (Prostaglandins, 3: 29 [1973]) in order to insure adequate stability of drugs at the subcutaneous depot. […]
Four hours after pyllric ligation the animals were killed with ether, the cardias ligated, and the stomachs removed. The volume of gastric secretion was measured and the contents centrifuged at 5000 rpm for 10 minutes. […]
Volume and total acid values of the treated group were compared with those of the controls […]. Antisecretory activity was scored according to the following scale: […]

[3] = tested on: rat colon; experiment: Cascade assay: rat colon; type: cell-based; conditions: in vitro, smooth muscle stimulant ED50 scored
Protocol: (§1) (A) effects on the rat stomach, rat colon, chick rectum, and rabbit aorta in vitro (cascade assay);
(§2) The smooth muscle stimulant effects of test compounds were determined simultaneously in four different tissues that are known to be reactive to naturally occurring prostaglandins. Segments of rat stomach fundus, rat colon, chick rectum and rabbit aortic strip were obtained as described by: Vane, J. R., Brit. J. Pharmacol., 12: 344 (1957); Regoli, D. and Vane, J. R., Brit. J. Pharmacol., 23: 351 (1964); Mann, M. and West, G. B., Brit. J. Pharmacol., 5: 173 (1950); and Furchgott, R. F. and Bhadrakom, R., J. Pharmacol. Exper. Ther., 108: 129 (1953). One end of each preparation was tied to the bottom of a 10 ml tissue chamber and the other to a force displacement transducer (Grass FT-03) for continuous tension recording. The stomach, colon, and rectum segments were stretched to an initial tension of 1 g, while the aortic strip was subjected to 4 g. All preparations were left undisturbed for 1 hour prior to testing. […]
(§3) Test compounds were diluted from stock solutions so as to administer quantities ranging from 0.0001 to 100,000 ng in a volume of 0.5 ml. […] Maximal increases in tension after each dose were measured and the results were used to plot dose-response curves. […]
(§4) Activity in each tissue was scored according to the following scale: […]

[4] = tested on: rabbit aortic strip; experiment: Cascade assay: rabbit aortic strip; type: cell-based; conditions: in vitro, smooth muscle stimulant ED50 scored
Protocol: as §1, §2, §3, §4

[5] = tested on: human platelet; experiment: Inhibition of human platelet aggregation in vitro; type: cell-based; conditions: human platelet rich plasma, collagen-induced
Protocol: (E) effect on human platelet aggregation in vitro; and
The ability of test compounds to inhibit platelet aggregation was determined by a modification of the turbidometric technique of Born, G. V. R. (Nature, 194: 927 [1962]). Blood was collected from human volunteers, who had not ingested aspirin or aspirin-containing products within the preceding two weeks, in heparinized containers and was allowed to settle for one (1) hour. The platelet rich plasma (prp) supernates were collected and pooled. Siliconized glassware was used throughout.
In a representative assay, 1.9 ml of PRP and 0.2 ml of test compound at the appropriate concentration ([…]), or 0.2 ml of distilled water (control procedure) were placed in sample cuvettes. The cuvettes were placed in a 37° C. incubation block for 15 minutes, and then in a spectrophotometer linked to a strip chart recorder. After 30-60 seconds, 0.2 ml of a solution, prepared by diluting a calf-skin collagen solution 1:9 with Tyrodes' Solution, was added to each cuvette. Platelet aggregation was evidenced by a decrease in optical density.
An ED50 value was then determined graphically.

[6] = tested on: rat stomach fundus; experiment: Cascade assay: rat stomach fundus; type: cell-based; conditions: in vitro, smooth muscle stimulant ED50 scored
Protocol: as §1, §2, §3, §4

[7] = tested on: chick rectum; experiment: Cascade assay: chick rectum; type: cell-based; conditions: in vitro, smooth muscle stimulant ED50 scored
Protocol: as §1, §2, §3, §4

[8] = tested on: growth hormone; conditions: rats; cited from earlier work
[9] = tested on: female reproductive system; conditions: cited from earlier work; for labor / abortion effect: inducing labor, early pregnancy
[10] = tested on: tracheal smooth muscle; conditions: in vitro, most mammalian respiratory tracts; cited from earlier work
[11] = tested on: adrenal glands; conditions: hypophysectomized rats; cited from earlier work
[12] = tested on: motor pathways in the central nervous system; conditions: cited from earlier work

CCCCC[C@@H](O)/C(=C/C1CCC(=O)C1C/C=C\CCCC(=O)OC)c1ccccc1 (mixture of isomers) [Example 8, Methyl dl-14-phenyl-15R-hydroxy-9-oxoprosta-5,13E-dien-1-oate]
Rat Uterus: activity value (ED50) [1]: 0 (>10)

CCCCC[C@H](O)/C(=C/C1CCC(=O)C1C/C=C\CCCC(=O)OC)c1ccccc1 (mixture of isomers) [Example 9, Methyl dl-14-phenyl-15S-hydroxy-9-oxoprosta-5Z,13E-dien-1-oate]
Rat Uterus: activity value (ED50) [1]: 0 (>10)

CCCCC[C@H](O)/C(=C/C1CCC(=O)C1C/C=C\CCCC(=O)O)c1ccccc1 (mixture of isomers) [Example 10, dl-14-Phenyl-15S-hydroxy-9-oxoprosta-5Z,13E-dien-1-oic acid]
Rat Uterus: activity value (ED50) [1]: 0 (>10)

CCCCC[C@@H](O)/C(=C/C1CCC(=O)C1C/C=C\CCCC(=O)O)c1ccccc1 (mixture of isomers) [Example 11, dl-14-Phenyl-15R-hydroxy-9-oxoprosta-5Z-13E-dien-1-oic acid]
Rat Uterus: activity value (ED50) [1]: 0 (>10)

CCCCCC(O)/C(=C/C1CCC(=O)C1CCCCCCC(=O)OC)c1ccccc1 (racemic) [Example 5, Methyl dl-14-phenyl-15R,S-hydroxy-9-oxoprost-13E-en-1-oate]
Rat Uterus: activity value (ED50) [1]: 0 (>10)

CCCCC[C@H](O)/C(=C/[C@H]1[C@H](O)CC(=O)[C@@H]1CCCCCCC(=O)O)c1ccccc1 [Example 2, 14-Phenyl-11α,15S-dihydroxy-9-oxoprost-13E-en-1-oic acid]
Rat Uterus: activity value (ED50) [1]: 0 (>10)

CCCCC[C@@H](O)/C(=C/[C@H]1[C@H](O)CC(=O)[C@@H]1CCCCCCC(=O)O)c1ccccc1 [Example 3, 14-phenyl-11α,15R-dihydroxy-9-oxoprost-13E-en-1-oic acid]
Rat Uterus: activity value (ED50) [1]: 0 (>10)

CCCCC[C@H](O)/C(=C/[C@H]1[C@H](O)CC(=O)[C@@H]1C/C=C\CCCC(=O)OCC)c1ccccc1 [Example 7B, Ethyl-14-Phenyl-11α,15S-dihydroxy-9-oxoprosta-5Z-13E-dien-1-oate]
Rat Uterus: activity value (ED50) [1]: 0 (>10)

CCCCC[C@@H](O)/C(=C/C1C=CC(=O)C1CCCCCCC(=O)O)c1ccccc1 (stereo partly drawn) [Example 12, 14-Phenyl-15R-hydroxy-9-oxo-ent-prosta-10,13E-dien-1-oic acid]
Gastric Secretion: activity value (% decrease in acidity) [2]: 0 (<26) | Rat Uterus: activity value (ED50) [1]: 0 (>10) | Cascade, Colon: activity value (ED50) [3]: 0 (>10000) | Cascade, Aorta: activity value (ED50) [4]: 0 (>10000) | Platelet Aggregation: activity value (ED50) [5]: 1 (>0.1 and ≤1.0) | Cascade, Stomache: activity value (ED50) [6]: 0 (>10000) | Cascade, Rectum: activity value (ED50) [7]: 0 (>10000)

CCCCCC(O)/C(=C/[C@@H]1[C@@H](C/C=C\CCCC(=O)O)[C@@H](O)C[C@H]1O)c1ccccc1 (stereo partly drawn) [Example 14, 14-Phenyl-9α,11α,15R,S-trihydroxyprosta-5Z,13E-dien-1-oic acid]
Rat Uterus: activity value (ED50) [1]: 0 (>10)

CCCCC[C@H](O)/C=C/[C@H]1[C@H](O)CC(=O)[C@@H]1C/C=C\CCCC(=O)O [PGE2]
release of the growth hormone [8]: increase the release of the growth hormone | labor / abortion effect [9]: produces potent oxytocic effects in inducing labor | effect on tracheal smooth muscle [10]: relax | steroidogenesis in the adrenal glands [11]: stimulate stereoidogenesis in the adrenal glands

CCCCC[C@H](O)/C=C/[C@@H]1[C@@H](C/C=C\CCCC(=O)O)[C@@H](O)C[C@H]1O [PGF2α]
fertility / gestation effect ([9]; female reproductive system): has contragestational effects | labor / abortion effect [9]: induces spontaneous abortions in early pregnancy | transmission along motor pathways in the central nervous system [12]: facilitates transmission along motor pathways in the central nervous system | effect on tracheal smooth muscle [10]: contracts such smooth muscle
